Reference: US9315563B2, “Peptides that inhibit angiotensin converting enzyme and peptides with antioxidant activity purified from ovotransferrin and methods of producing and using the same” (The Governors of the University of Alberta, priority 2009, dated 2016)
Values joined by “and” are separate entries in the source; they are usually repeats but may differ in a detail not shown here. Equal values may be shown once.

Assay: ORAC-FL assay (oxygen radical absorbance capacity)
Conditions: for ORAC: chemically synthesized peptides, Trolox equivalent; for Change of antioxidant activity on extension of the peptide: ORAC, relative to GWNI, WNIP or AGWNIP; for ORAC value (sign, in words): suggesting prooxidant activity
Method: Briefly, 80 mM AAPH and 200 nM fluorescein in 75 mM phosphate buffer at pH 7.4 were prepared for each experiment. For each run, 20 μL of antioxidant, and 80 μL of phosphate buffer (or 100 μL of Trolox standard solutions at final concentrations of 1 to 8 μM) were placed in wells of a 96-well microplate, followed by addition of 50 μL of the fluorescein solution. The mixture was preincubated for 15 min at 37° C. 50 μL of AAPH solution was added rapidly using a multichannel pipet. The microplate was immediately placed in a Fluoroskan Ascent microplate reader (Thermo Electron Corporation) with 485-P excitation and 538-P emission filters and the fluorescence recorded every minute for 100 min. All readings were recorded using Fluoroskan Ascent software. The area under the curve of fluorescence decay (AUC) was calculated using Graphpad prism software (trial version). Regression equations between AUC and antioxidant concentrations were calculated for all the samples. The ORAC value was calculated by dividing the slope of sample regression curve by the slope of Trolox regression curve. Final ORAC values were expressed as μmol of Trolox equivalent/mg of protein or peptide.

Compound `Oc1cc(O)c2c(c1)O[C@H](c1ccc(O)c(O)c1)[C@@H](O)C2` [(+)-catechin, reference compound] has an ORAC of 14.9 μmol/μmol.

For AGWNI, the “Change of antioxidant activity on extension of the peptide” value (“Change of antioxidant activity” for short) was “decreased the antioxidant activity by half” and the ORAC was 8.55 ± 0.60 μmol/μmol.

With AGWNIP the “Change of antioxidant activity” value was “decreased the antioxidant activity by half” and the ORAC was 7.64 ± 0.83 μmol/μmol.

In the case of AGWNIPIGT, the “Change of antioxidant activity” value is reported as “did not decrease the antioxidant activity further” and the ORAC is reported as 5.25 ± 0.26 μmol/μmol.

For AIEWEGIESGSVEQA, the ORAC was 0.95 ± 0.46 μmol/μmol.

In the case of GWNI, the ORAC is reported as 13.90 μmol/μmol and 13.90 ± 1.05 μmol/μmol.

For GWNIP, the “Change of antioxidant activity” value was “decreased the antioxidant activity by half” and the ORAC was 6.19 ± 0.64 μmol/μmol.

With IAAEVYEHTEGSTTSY the ORAC was 2.39 ± 0.17 μmol/μmol.

Compound IANNEADAISLDGGQVFEAG has an ORAC of 0.43 ± 0.05 μmol/μmol.

Compound IEWEGIESGSVEQA has an ORAC of 0.73 ± 0.16 μmol/μmol.

Work on LGFEY yielded an ORAC of 9.79 ± 0.55 μmol/μmol.

For LGFEYY, the ORAC was 7.25 ± 0.71 μmol/μmol.

In the case of LSKAQSDFG, the ORAC is reported as −1.40 ± 0.69 μmol/μmol and the “ORAC value (sign, in words)” value is reported as “negative ORAC values”.

In the case of LVEKGDVAFI, the ORAC is reported as −0.07 ± 0.03 μmol/μmol and the “ORAC value (sign, in words)” value is reported as “negative ORAC values”.

Compound PIAAEVYEHTEGSTTSY has an ORAC of 1.68 ± 0.03 μmol/μmol.

For VIPMGL, the ORAC was 2.89 ± 0.15 μmol/μmol.

With WNIP the ORAC was 15.47 μmol/μmol and 15.47 ± 0.68 μmol/μmol.
